US12421212B2, “Substituted benzenecarboxamides as IL-17A modulators” (DiCE Alpha, Inc., priority 2019, dated 2025)

Biological target: T1, IL-17A/A (Homo sapiens, UniProt Q16552)
T1 construct: purchased Genscript Z03228
T1 sequence (Q16552 24-155): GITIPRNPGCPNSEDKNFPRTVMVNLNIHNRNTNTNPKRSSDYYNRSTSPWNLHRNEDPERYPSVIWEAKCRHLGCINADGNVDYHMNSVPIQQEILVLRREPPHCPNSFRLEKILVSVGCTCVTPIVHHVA
Assay: IL-17A/A HEK-Blue Cell Assay
Format: cell-based
Conditions: HEK-Blue IL-17A reporter cell line, SEAP readout at A630, 20 hours incubation with IL-17A/A, top concentration 10 uM, 1 uM or 0.3 uM; for IC50: read-out: IL-17A/A inhibition (pIC50) (converted)
Protocol: The HEK-Blue IL-17A reporter cell line (Fisher #NC1408637) was used for cell-based IL-17A/A inhibition assays. Cells were grown and prepared for assays according to the manufacturer's instructions. This cell line consists of HEK 293 cells that were designed to expressed IL-17RA, IL-17RC, and the ActI adapter molecule, the combination of which, when stimulated by IL-17A/A activates a NFκB promoter and drives expression of a recombinant Secreted Alkaline Phosphatase (SEAP) geneprotein. Media from the cells is then added to a development reagent (Quanti-Blue Substrate, Fisher #NC9711613), and read at A630.
Compounds were titrated in DMSO, with a top final compound concentration of 10 uM, 1 uM, or 0.3 uM, and added to the cells immediately before adding IL-17A/A (Genscript #Z03228). The cells, compound, and IL-17A/A were then incubated for 20 hours before media was removed for SEAP analysis. The resulting inhibition curve was then analyzed using Graphpad Prism 7.0, and IC50 values were determined using a 4-parameter nonlinear fit. DMSO was added to a universal final concentration of 0.1% to optimize background.

| SMILES | IC50 [nM] | IL-17A/A inhibition (pIC50) |
| --- | --- | --- |
| CCC(=O)N[C@@H](C(=O)N1CCN(C)CC1)[C@@H](C)c1ccc(NC(=O)[C@@H](NC(=O)C(F)(F)c2cccc(C#N)c2)C2CCCCC2)c(F)c1 [Compound 230] | < 10 |  |
| CC1CCC(C(NC(=O)C(F)(F)c2cccc(C#N)c2)C(=O)Nc2ccc(C(C)C(NC(=O)c3cnns3)C(=O)N3CCN(C)CC3)cc2F)CC1 (stereo not shown) [Compound 336] | < 10 |  |
| CCC(=O)N[C@@H](C(=O)N1CCC(C)(O)CC1)[C@@H](C)c1ccc(NC(=O)[C@@H](NC(=O)C(F)(F)c2nc(C)cs2)[C@H]2CC[C@H](C)CC2)c(F)c1 [Compound 376] | 10 to 100 |  |
| CC(C)n1nccc1C(=O)N[C@H](C(=O)Nc1ccc([C@H](C)[C@@H](NC(=O)c2cnns2)C(=O)N2CCN(C)CC2)cc1F)[C@H]1CC[C@H](C)CC1 [Compound 333] | < 10 |  |
| CCC(=O)N[C@@H](C(=O)N1CCN(C)CC1)[C@@H](C)c1ccc(NC(=O)[C@@H](NC(=O)C(F)(F)C2CCN(CCO)CC2)C2CCCCC2)c(F)c1 [Compound 735] |  | X2a (compounds were evaluated up to 1 uM and did not inhibit activity by >80%, however they showed some activity at 1 uM (less than 80% and more than 20%)) |
| CCC(=O)N[C@@H](C(=O)N1CCN(C)CC1)[C@@H](C)c1ccc(NC(=O)[C@@H](NC(=O)c2coc3c2COC3)[C@H]2CC[C@H](C)CC2)c(F)c1 [Compound 277] | < 10 |  |
| CCC(=O)N[C@@H](C(=O)N1CCN(C)CC1)[C@@H](C)c1ccc(NC(=O)C(NC(=O)C(F)(F)c2cccc(C#N)c2)[C@@H](C)c2ccccc2)c(F)c1 (stereo partly shown) [Compound 290] | < 10 |  |
| C[C@@H](c1ccc(NC(=O)[C@@H](NC(=O)c2ccnn2C2CCCC2)[C@H]2CC[C@H](C)CC2)c(F)c1)[C@@H](NC(=O)C1(F)CC1)C(=O)N1CCOCC1 [Compound 380] | 10 to 100 |  |
| CCC(=O)N[C@@H](C(=O)N1CCN(C)CC1)[C@@H](C)c1ccc(NC(=O)C(NC(=O)c2ccnn2CC)[C@@H](C)C2CCCCC2)c(F)c1 (stereo partly shown) [Compound 390] | < 10 |  |
| CCC(=O)N[C@@H](C(=O)N1CCN(C)CC1)[C@@H](C)c1ccc(NC(=O)[C@@H](NC(=O)C(F)(F)c2cncc(OC)c2)C2CCCCCC2)c(F)c1 [Compound 262] | 10 to 100 |  |
| CCC(=O)N[C@@H](C(=O)N1CCC(C)(O)CC1)[C@@H](C)c1ccc(NC(=O)[C@@H](NC(=O)c2ccnn2C(C)C)[C@H]2CC[C@H](C)CC2)c(F)c1 [Compound 377] | 10 to 100 |  |
| CCC(=O)N[C@@H](C(=O)N1CCN(C)CC1)[C@@H](C)c1ccc(NC(=O)C(NC(=O)c2ccnn2CC)C(CC)c2ccc(Cl)cc2)c(F)c1 (single isomer, unassigned) [Compound 563] |  | X2b (compounds were evaluated up to 1 uM and inhibited activity at 1 uM by less than 20%) |
| CCC(=O)N[C@H](Cc1ccc(NC(=O)[C@H](Cc2ccc(Cl)cc2)NC(=O)c2ccnn2CC)c(F)c1)C(=O)N1CCN(C)CC1 [Compound 722] |  | X2b (compounds were evaluated up to 1 uM and inhibited activity at 1 uM by less than 20%) |
| CCC(=O)N[C@H](Cc1ccc(NC(=O)[C@@H](NC(=O)c2coc3cc(OC)ccc23)C2CCCCC2)c(F)c1)C(=O)N1CCN(C)CC1 [Compound 239] | 10 to 100 |  |
| C[C@@H](c1ccc(NC(=O)[C@@H](NC(=O)C(F)(F)c2cccc(C#N)c2)C2CCCCC2)c(F)c1)[C@@H](NC(=O)c1cnns1)C(=O)N1CCN(C)CC1 [Compound 311] | < 10 |  |
| CCC(=O)N[C@H](Cc1ccc(NC(=O)[C@@H](NC(=O)C(F)(F)c2cncs2)C2CCCCC2)c(F)c1)C(=O)N1CCN(C)CC1 [Compound 213] | 100 to 10000 |  |
| CCC(=O)N[C@H](Cc1ccc(NC(=O)[C@@H](NC(=O)c2ccnn2CC)C2CCCCC2)c(F)c1)C(=O)N1C[C@@H]2C[C@H]1CN2C [Compound 696] |  | X2a (compounds were evaluated up to 1 uM and did not inhibit activity by >80%, however they showed some activity at 1 uM (less than 80% and more than 20%)) |
| CCC(=O)N[C@H](Cc1ccc(NC(=O)[C@H](Cc2ccccc2Cl)NC(=O)C(F)(F)c2ccc(OC)nc2)c(F)c1)C(=O)N1CCN(C)CC1 [Compound 731] |  | X2b (compounds were evaluated up to 1 uM and inhibited activity at 1 uM by less than 20%) |
| CCC(=O)N[C@@H](C(=O)N1CCN(C)CC1)[C@@H](C)c1ccc(NC(=O)[C@@H](NC(=O)c2ccnn2CC)C2CCOCC2)c(F)c1 [Compound 747] |  | X2b (compounds were evaluated up to 1 uM and inhibited activity at 1 uM by less than 20%) |
| CCC(=O)N[C@H](Cc1ccc(NC(=O)[C@@H](NC(=O)C(F)(F)C2(O)CCCC2)C2CCCCC2)c(F)c1)C(=O)N1CCN(C)CC1 [Compound 715] |  | X2b (compounds were evaluated up to 1 uM and inhibited activity at 1 uM by less than 20%) |
| CCn1nccc1C(=O)N[C@H](C(=O)Nc1ccc([C@H](C)[C@@H](NC(=O)c2ccnn2C2CCOCC2)C(=O)N2CCC(C)(O)CC2)cc1F)[C@H]1CC[C@H](C)CC1 [Compound 417] | < 10 |  |
| CCc1nocc1C(=O)N[C@H](C(=O)Nc1ccc([C@H](C)[C@@H](NC(=O)c2cnns2)C(=O)N2CCN(C)CC2)cc1F)[C@H]1CC[C@H](C)CC1 [Compound 414] | < 10 |  |
| CCC(=O)N[C@@H](C(=O)N1CCN(C)CC1)[C@@H](C)c1ccc(NC(=O)C(NC(=O)c2ccnn2CC)C(CC)c2ccccc2)c(F)c1 (stereo partly shown) [Compound 293] | 10 to 100 |  |
| CCn1nccc1C(=O)N[C@H](C(=O)Nc1ccc([C@H](C)[C@@H](NC(=O)c2cnns2)C(=O)N2CCN(C)CC2)cc1F)[C@H]1CC[C@H](C)CC1 [Compound 388] | 10 to 100 |  |
| CCC(=O)N[C@H](C(=O)N1CCN(C)CC1)[C@H](C)c1ccc(NC(=O)[C@@H](NC(=O)c2ccnn2CC)[C@H]2CC[C@H](C)CC2)c(F)c1 [Compound 542] |  | X3b (compounds were evaluated up to 0.3 uM and inhibited activity at 0.3 uM by less than 20%) |
| CCC(=O)N[C@H](Cc1ccc(NC(=O)[C@@H](NC(=O)c2ccnn2CC)C2CCCCC2)c(F)c1)C(=O)N1CCN2CCCC[C@@H]2C1 [Compound 697] |  | X2a (compounds were evaluated up to 1 uM and did not inhibit activity by >80%, however they showed some activity at 1 uM (less than 80% and more than 20%)) |
| CCC(=O)N[C@@H](C(=O)N1CCC(C)(O)CC1)[C@@H](C)c1ccc(NC(=O)[C@@H](NC(=O)c2ccnn2CC)C2CCCCCC2)c(F)c1 [Compound 350] | < 10 |  |

Further lines, with some results ahead:

| IC50 [nM] | SMILES | IL-17A/A inhibition (pIC50) |
| --- | --- | --- |
| 100 to 10000 | CCC(=O)N[C@@H](C(=O)N1CCN[C@H](C)C1)[C@@H](C)c1ccc(NC(=O)[C@@H](NC(=O)c2nonc2CC)[C@H]2CC[C@H](C)CC2)c(F)c1 [Compound 454] |  |
| 100 to 10000 | CCn1nccc1C(=O)N[C@H](C(=O)Nc1ccc([C@H](C)[C@@H](NC(=O)c2cc(C)n[nH]2)C(=O)N2CCN(C)CC2)cc1F)C1CCCCC1 [Compound 666] |  |
| 10 to 100 | CCn1nccc1C(=O)N[C@H](C(=O)Nc1ccc([C@H](C)C(NC(=O)C(C)F)C(=O)N2CCN(C)[C@@H](C)C2)cc1F)[C@H]1CC[C@H](C)CC1 (single isomer, unassigned) [Compound 592] |  |
| 10 to 100 | CCn1nccc1C(=O)N[C@H](C(=O)Nc1ccc([C@H](C)[C@@H](NC(=O)c2cnns2)C(=O)N2CCN(CCO)CC2)cc1F)[C@H]1CC[C@H](C)CC1 [Compound 428] |  |
| 100 to 10000 | CCC(=O)N[C@H](Cc1ccc(NC(=O)[C@@H](NC(=O)c2coc3ccccc23)C2CCCCC2)c(F)c1)C(=O)N1CCN(C)CC1 [Compound 632] |  |
| 100 to 10000 | CCC(=O)N[C@@H](C(=O)N1CC(F)(F)C1)[C@@H](C)c1ccc(NC(=O)[C@@H](NC(=O)c2ccnn2CC)C2CCCCC2)c(F)c1 [Compound 629] |  |
| < 10 | CCc1nonc1C(=O)N[C@H](C(=O)Nc1ccc([C@H](C)[C@@H](NC(=O)[C@@H](C)F)C(=O)N2CCN(C)CC2)cc1F)[C@H]1CC[C@H](C)CC1 [Compound 500] |  |
| 10 to 100 | CCC(=O)N[C@@H](C(=O)N1CCN(C)CC1)[C@@H](C)c1ccc(NC(=O)[C@@H](NC(=O)c2nonc2CC)[C@H](OC)c2ccc(F)cc2)c(F)c1 [Compound 611] |  |
| < 10 | Cc1nonc1C(=O)N[C@H](C(=O)Nc1ccc([C@H](C)[C@@H](NC(=O)c2cnns2)C(=O)N2CCN(C)CC2)cc1F)[C@H]1CC[C@H](C)CC1 [Compound 583] |  |
| 100 to 10000 | CCn1nccc1C(=O)N[C@H](C(=O)Nc1ccc([C@H](C)[C@@H](NC(=O)CC(F)(F)F)C(=O)N2CCN(C)CC2)cc1F)C1CCCCC1 [Compound 643] |  |
| 10 to 100 | CCc1nonc1C(=O)N[C@H](C(=O)Nc1ccc([C@H](C)[C@@H](NC(=O)c2c(OC)cnn2CC)C(=O)N2CCN(C)CC2)cc1F)[C@H]1CC[C@H](C)CC1 [Compound 577] |  |
| < 10 | CCC(=O)N[C@@H](C(=O)N1CCN(C)CC1(C)C)[C@@H](C)c1ccc(NC(=O)[C@@H](NC(=O)c2ccnn2CC)[C@H]2CC[C@H](C)CC2)c(F)c1 [Compound 431] |  |
| < 10 | CCn1nccc1C(=O)N[C@H](C(=O)Nc1ccc([C@H](C)[C@@H](NC(=O)C(C)C2CC2)C(=O)N2CCN(C)[C@H](C)C2)cc1F)[C@H]1CC[C@H](C)CC1 (stereo partly shown) [Compound 434] |  |
